Test results as given in publication PMC11325555, “Interaction of Bisphenol A and Its Analogs with Estrogen and Androgen Receptor from Atlantic Cod (Gadus morhua)” (Environmental Science & Technology, 2024).

Legend:
[1] = target: T1, Atlantic cod estrogen receptor alpha (gmEra) LBD (Gadus morhua, UniProt U5ILH7); experiment: Luciferase reporter gene assay, gmEra antagonism (antiestrogenic activity), coexposure with 3 nM EE2; format: cell-based; conditions: for antiestrogenic effect on gmEra, result in words: coexposure with EE2 (3 nM, EC20)
T1 sequence (U5ILH7 170-455): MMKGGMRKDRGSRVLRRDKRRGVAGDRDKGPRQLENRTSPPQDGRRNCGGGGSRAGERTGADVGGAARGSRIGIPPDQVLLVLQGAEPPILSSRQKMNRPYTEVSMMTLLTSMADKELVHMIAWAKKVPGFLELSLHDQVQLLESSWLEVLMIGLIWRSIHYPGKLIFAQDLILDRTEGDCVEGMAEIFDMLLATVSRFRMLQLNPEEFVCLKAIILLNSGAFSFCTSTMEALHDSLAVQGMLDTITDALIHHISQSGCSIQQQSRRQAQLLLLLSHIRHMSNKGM
Protocol: (§1) Ligand activation of gmEra and gmAra was studied with a luciferase reporter gene assay in COS-7 cells transiently transfected with the pCMX-GAL4(DBD)-gmEra(LBD) or pCMX-GAL4(DBD)-gmAra(LBD) plasmid by using the TransIT-LT1 reagent (TransIT-LT1 Transfection Reagent, Mirus). Cells were seeded into 96-well plates (5000 cells/well) and incubated for 24 h before cotransfection with the plasmid mixture (100 ng/well). The plasmid mixture contained GAL4-UAS luciferase reporter plasmid (tk-(MH100)x4 luc), the pCMX-GAL4(DBD)-gmEra(LBD) or pCMX-GAL4(DBD)-gmAra(LBD) receptor plasmids (2:1 reporter:receptor plasmid mass ratio), and a plasmid constitutively producing the β-galactosidase enzyme used for normalization of transfection efficiency (pCMV- β-Gal). […] The maximum DMSO/methanol concentrations in the exposure wells were 0.5% (v/v) in DMEM medium without phenol red (Sigma-Aldrich). After exposure, cells were lysed, and luciferase and beta-galactosidase activities were measured as luminescence and absorbance (420 nm) after the addition of luciferin and ONPG substrates, respectively, using an Enspire Multimode plate reader (PerkinElmer, Waltham, Massachusetts, USA).
To investigate potential antiestrogenic effects, COS-7 cells transiently expressing gmEra LBD were exposed to the 12 bisphenols in binary mixtures with a fixed concentration of EE2 (3 nM, corresponding to EC20) (Figure 2 and Table 1).
(§2) The dose–response curves were created using nonlinear regression and the four-parameter logistic fit in Graphpad Prism v.9. *p < 0.05 versus solvent control by ANOVA and Dunnett’s multiple comparison post hoc test.

[2] = target: T1, Atlantic cod estrogen receptor alpha (gmEra) LBD; experiment: Luciferase reporter gene assay, gmEra agonism (estrogenic activity) in transfected COS-7 cells; conditions: for gmEra REP50 (relative potency EC50, EC50-bisphenol A/EC50-bisphenol X): relative to BPA
Protocol: as §1
Luciferase reporter gene assays were established with COS-7 cells transiently producing the LBD of gmEra (Figure S1) for evaluating the estrogenic potential of 12 bisphenols.
COS-7 cells transiently transfected with gmEra-LBD were exposed to EE2 (open circles), BPA (black circles), and 11 different BPA analogs (red squares and as indicated) at increasing concentrations. Responses are presented as mean fold activation in luciferase activity in comparison to solvent-exposed cells ± SEM from three independent experiments with three technical replicates (n = 9). The dose–response curves were created using nonlinear regression and the four parameter logistic fit in Graphpad Prism v.9. For comparison, the dose–response curve of BPA (black line) is indicated together with each individual BP tested (red line). *p < 0.05 versus solvent control by one-way ANOVA and Dunnett’s multiple comparison post hoc test.

COS-7 cells = experiment: Cytotoxicity toward COS-7 cells (resazurin and CFDA-AM assays); conditions: 24 h; for concentration that affected COS-7 cell viability: binary combination with 0.003 μM EE2
Description: The cytotoxicity of the test compounds toward COS-7 cells was monitored by measuring the metabolic activity and membrane integrity through the conversion of resazurin and 5-carboxyfluorescein diacetate acetoxymethyl ester (CFDA-AM), respectively, as described previously by Pérez-Albaladejo et al.[54] […]
used as a negative control.
Figure S2. Assessing metabolic activity (resazurin) and cell membrane integrity (CFDA-AM) in COS-7 cells after BP exposures. COS-7 cells were exposed to three concentrations of each BP, as well as three concentrations […]
exposed at 37 °C and 5 % CO2 for 24 hours. Cytotoxicity is indicated by a reduction in the fluorescent signal (denoted as % Cell survival) relative to the solvent control (DMSO, dotted line) adjusted to 100 %. A reduction in cell viability exceeding 20 % is generally regarded as cytotoxic (indicated with a red dotted line) (ISO, I. 2009.
10993–5: 2009 Biological evaluation of medical devices—part 5: tests for in vitro cytotoxicity. International Organization for Standardization, Geneva.).
(1 picture or pasted object on this page, not shown here)

[3] = system: Er-mediated synthesis of Vtg in Atlantic cod PCLS; experiment: Vitellogenin ELISA in media of exposed precision-cut liver slices (PCLS); format: cell-based, Atlantic cod (Gadus morhua); conditions: 96 h; for concentration at which maximum Vtg levels were observed: 1, 10, 100 μM tested; for Vtg synthesis in PCLS, result in words: 1, 10, 100 μM bisphenols or 0.1, 1, 10 nM EE2, Vtg in media by ELISA
Protocol: PCLS culturing and exposure assays were performed essentially as described previously,[42],[56] with the modifications described below. Juvenile Atlantic cod were killed by a blow to the head, and the liver was dissected out and placed in a Petri dish containing ice-cold PCLS buffer (122 mM NaCl, 4.8 mM KCl, 1.2 mM MgSO4, 11 mM Na2HPO4, 3.7 mM NaHCO3, […]). The liver was then cut into small tissue blocks (approximately 3 cm long, 2 cm wide, and 1–3 cm high) and kept in ice-cold complete culture medium (L-15 medium supplemented with 10% FBS and 1× antibiotic-antimycotic solution). For slicing, the tissue block was fixed on the specimen plate of a Leica vibrating blade microtome VT1200 (Leica, Wetzlar, Germany) using Loctite Super Glue (Clas Ohlson, Bergen, Norway), and 250 μm thick tissue slices were cut (under ice-cold PCLS buffer) and kept in a Petri dish with ice-cold complete culture medium. Using a sterile razor blade, the tissue slices (2 × 3 cm) were then divided into smaller pieces (approximately 4 × 4 mm) and distributed into a 12-well cell culture plate (Sarstedt, Nümbrecht, Germany), each well containing 6 slices and 2 mL of complete culture medium. The PCLS were preincubated at 10 °C for 2 h before exposure. After preincubation, 1 mL of the medium was removed from each well and replaced by 1 mL of fresh complete culture medium containing 2x the final desired concentration and incubated at 10 °C for 96 h with shaking at 50 rpm. […] At the end of the exposure, slices were collected with tweezers and rinsed briefly in cold PBS. Excess PBS was removed by carefully touching a dry surface of the culture plate with the slice 4 times before measuring the weight in a preweighed cryotube. The slices were then snap-frozen in liquid N2 and stored at −80 °C. The media was also sampled and stored at −80 °C for viability (LDH) assay and vitellogenin ELISA.
Vitellogenin (Vtg) in media collected from exposed PCLS was quantified using the Atlantic Cod Vitellogenin ELISA kit (Biosense Laboratories AS, Bergen, Norway) according to manufacturer’s instructions. Vtg was quantified in 100 μL of undiluted media and normalized to the weight of the liver tissue. Statistical analysis of ELISA data was performed with GraphPad Prism Software version 9 (GraphPad Prism, La Jolla, CA, USA) by using one-way ANOVA followed by Dunnett’s test (for normally distributed data) or Friedman test followed by Dunn’s test (for non-normally distributed data), as described previously for PCLS experiments (Yadetie et al.[42]).
Figure 5 Relative vitellogenin production in Atlantic cod precision-cut liver slices (PCLS) exposed to bisphenols and EE2. PCLS were exposed to 1, 10, and 100 μM bisphenols or 0.1, 1, and 10 nM EE2, for 96 h. EE2 was included as positive control for activation of the gmEra signaling pathway. Levels of induced Vtg in the PCLS media were measured using ELISA (Cod Vitellogenin ELISA kit, Biosense Laboratories AS). The data represents mean ± SEM of fold change (compared to solvent control) of Vtg levels from 4 to 10 fish. n = 8–10 for all bisphenols except for BADGE (n = 4). Asterisks denote significant changes (p < 0.05) compared to solvent control.

[4] = target: T2, Atlantic cod androgen receptor alpha (gmAra) LBD (Gadus morhua, UniProt D5FIC7); experiment: Luciferase reporter gene assay, gmAra antagonism (antiandrogenic activity), coexposure with 5 nM testosterone; format: cell-based; conditions: for effect on testosterone-mediated gmAra activity, result in words: BPs 0.003–50 μM with 5 nM testosterone; for IC50: gmAra IC50, in the presence of 5 nM testosterone (EC20)
T2 sequence (D5FIC7 409-718): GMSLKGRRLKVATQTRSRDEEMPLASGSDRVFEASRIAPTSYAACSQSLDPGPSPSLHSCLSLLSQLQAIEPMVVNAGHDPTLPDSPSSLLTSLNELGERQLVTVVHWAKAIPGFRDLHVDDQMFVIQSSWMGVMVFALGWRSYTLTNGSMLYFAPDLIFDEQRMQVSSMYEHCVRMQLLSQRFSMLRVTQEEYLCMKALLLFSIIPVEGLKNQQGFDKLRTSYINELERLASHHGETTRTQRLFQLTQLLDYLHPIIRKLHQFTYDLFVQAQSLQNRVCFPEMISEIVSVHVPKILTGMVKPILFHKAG
Protocol: as §1, §2

[5] = target: T2, Atlantic cod androgen receptor alpha (gmAra) LBD; experiment: Luciferase reporter gene assay, gmAra agonism (androgenic activity) in transfected COS-7 cells
Protocol: as §1
Figure 3 Androgenic activity of bisphenols. COS-7 cells were transiently transfected with gmAra LBD and exposed individually to 12 bisphenol analogs at increasing concentrations. […] The dose–response curves were created using nonlinear regression and the four-parameter logistic fit in Graphpad Prism v.9. For comparison, the dose–response curve of BPA (black line) is indicated together with each individual BP tested (red line). *p < 0.05 versus solvent control by one-way ANOVA and Dunnett’s multiple comparison post hoc test.

[6] = gmEra EC50, four-parameter logistic fit, 24 h exposure
[7] = antiandrogenic reporter assay conditions (with testosterone), highest concentration used

Oc1ccc(C(c2ccc(O)cc2)(C(F)(F)F)C(F)(F)F)cc1 [BPAF]
antiestrogenic effect on gmEra, result in words [1]: no antiestrogenic effects
EC50 [2, 6]: 230 nM
cytotoxic concentration in COS-7 cells (COS-7 cells; African green monkey): 50 µM
concentration at which maximum Vtg levels were observed [3]: 10 µM

CCC(C)(c1ccc(O)cc1)c1ccc(O)cc1 [BPB]
antiestrogenic effect on gmEra, result in words [1]: no antiestrogenic effects
EC50 [2, 6]: 1600 nM

Oc1ccc(C(=C(Cl)Cl)c2ccc(O)cc2)cc1 [BPC2]
IC50 [1]: 60 nM
EC50 [2, 6]: 200 nM

CC(c1ccc(O)cc1)c1ccc(O)cc1 [BPE]
antiestrogenic effect on gmEra, result in words [1]: no antiestrogenic effects
EC50 [2, 6]: 11700 nM
gmEra REP50 (relative potency EC50, EC50-bisphenol A/EC50-bisphenol X) [2]: 0.2
effect on testosterone-mediated gmAra activity, result in words [4]: significantly decrease the testosterone-mediated Ara-activity
IC50 [4]: 460 nM
Vtg synthesis in PCLS, result in words [3]: induced the highest Vtg-levels ex vivo
maximal fold induction ([5]; COS-7, monkey, 24 h, read-out: gmAra Emax): 1.2

Oc1ccc(Cc2ccc(O)cc2)cc1 [BPF]
antiestrogenic effect on gmEra, result in words [1]: no antiestrogenic effects
EC50 [2, 6]: 3800 nM
Vtg synthesis in PCLS, result in words [3]: induced the highest Vtg-levels ex vivo

CC(C)c1cc(C(C)(C)c2ccc(O)c(C(C)C)c2)ccc1O [BPG]
effect on testosterone-mediated gmAra activity, result in words [4]: significantly decrease the testosterone-mediated Ara-activity
IC50 [4]: 200 nM
cytotoxic concentration in COS-7 cells (COS-7 cells; [7]): 50 µM
concentration that affected COS-7 cell viability (COS-7 cells; highest concentration used): 50 µM
Vtg synthesis in PCLS, result in words [3]: able to induce Vtg synthesis in PCLS

O=S(=O)(c1ccc(O)cc1)c1ccc(O)cc1 [BPS]
antiestrogenic effect on gmEra, result in words [1]: no antiestrogenic effects
EC50 [2, 6]: 83300 nM

CC1CC(C)(C)CC(c2ccc(O)cc2)(c2ccc(O)cc2)C1 (stereo not drawn) [BPTMC]
effect on testosterone-mediated gmAra activity, result in words [4]: significantly decrease the testosterone-mediated Ara-activity
IC50 [4]: 1750 nM
cytotoxic concentration in COS-7 cells (COS-7 cells; [7]): 50 µM
concentration that affected COS-7 cell viability (COS-7 cells; highest concentration used): 50 µM
concentration at which maximum Vtg levels were observed [3]: 10 µM

Oc1ccc(C2(c3ccc(O)cc3)CCCCC2)cc1 [BPZ]
effect on testosterone-mediated gmAra activity, result in words [4]: significantly decrease the testosterone-mediated Ara-activity
IC50 [4]: 880 nM
effect on testosterone-mediated gmAra activity at lower concentrations, result in words ([4]; lower concentrations used (3–80 nM) with 5 nM testosterone): significant increases in gmAr activity
cytotoxic concentration in COS-7 cells (COS-7 cells; [7]): 50 µM
concentration that affected COS-7 cell viability (COS-7 cells; highest concentration used): 50 µM
Vtg synthesis in PCLS, result in words [3]: only moderate and not statistically significant
concentration at which maximum Vtg levels were observed [3]: 10 µM

C#C[C@]1(O)CC[C@H]2[C@@H]3CCc4cc(O)ccc4[C@H]3CC[C@@]21C [EE2, 17α-Ethynylestradiol, reference compound]
maximal fold induction ([2]; COS-7, monkey, 24 h, read-out: gmEra Emax): 80
potency toward gmEra relative to BPA (times more potent) ([2]; EE2 compared with BPA): ~10^3
EC50 [2, 6]: 7 nM
EC50 ([2]; gmEra EC50, value given in text): 6.8 nM
gmEra REP50 (relative potency EC50, EC50-bisphenol A/EC50-bisphenol X) [2]: 271
Vtg synthesis in PCLS, result in words [3]: increased Vtg-levels in the media in a dose-dependent manner

C[C@]12CC[C@H]3[C@@H](CCC4=CC(=O)CC[C@@]43C)[C@@H]1CC[C@@H]2O [T, testosterone, reference compound]
gmAra Emax ([5]; fold activation in luciferase activity vs solvent control, 24 h exposure, a = plateau not reached): 42.1 fold activation

CC(C)C(=O)Nc1ccc([N+](=O)[O-])c(C(F)(F)F)c1 [flutamide, reference compound]
IC50 [4]: ~710 nM
